Results from patent publication US20030187000A1, “Inhibitors for de novo-RNA polymerases and methods of identifying targets for same” (priority 2002, published 2003).

Molecular target: T1, NS5B (Hepatitis C virus genotype 1b, UniProt P26663)
T1 construct: the RNA dependent RNA polymerase from hepatitis C virus (NS5B)
Assay: Binding studies of thiomethylsulfonate derivatives
Settings: among heterocyclic/aromatic-substituted thiomethylsulfonate derivatives of FIG. 1
Source text: Cys366 was modified by both compounds (i.e., BMTS and MMTS) and is located in the proximity of the primer-binding site (i.e., initiation nucleotide binding site) of the enzyme. […] Based on these observations, it should especially be recognized that specific modification of Cys366 near the primer-binding site may advantageously be employed for rational inhibitor design. Furthermore, it is contemplated that second-generation compounds may even operate without involvement of the Cys366 (i.e., without formation of a covalent bond) by targeting only the small pocket of the NS5B. To explore the binding affinity and specificity to the cysteines near the active sites of NS5B, a exemplary heterocyclic/aromatic-substituted thiomethylsulfonate derivatives were designed and synthesized as depicted in FIG. 1. […] This compound was also soaked into the polymerase NS5B.

T1 sequence (P26663 2420-3010): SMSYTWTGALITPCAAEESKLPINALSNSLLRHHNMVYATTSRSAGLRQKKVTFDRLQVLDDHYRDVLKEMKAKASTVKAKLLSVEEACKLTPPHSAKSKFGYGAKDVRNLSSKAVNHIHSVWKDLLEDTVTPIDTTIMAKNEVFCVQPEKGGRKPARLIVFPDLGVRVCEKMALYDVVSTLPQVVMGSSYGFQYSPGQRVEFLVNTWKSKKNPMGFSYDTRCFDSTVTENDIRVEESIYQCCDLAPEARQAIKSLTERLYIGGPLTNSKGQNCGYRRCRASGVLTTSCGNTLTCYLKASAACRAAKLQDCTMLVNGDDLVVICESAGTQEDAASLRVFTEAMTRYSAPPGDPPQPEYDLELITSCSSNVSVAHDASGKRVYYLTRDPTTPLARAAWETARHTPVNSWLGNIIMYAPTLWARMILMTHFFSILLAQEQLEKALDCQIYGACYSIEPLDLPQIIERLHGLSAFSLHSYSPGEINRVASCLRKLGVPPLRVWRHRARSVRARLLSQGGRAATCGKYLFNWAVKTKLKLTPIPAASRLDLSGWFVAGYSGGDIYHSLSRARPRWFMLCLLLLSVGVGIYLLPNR

CS(=O)(=O)SCc1ccc(Cl)s1 [(5-chlorothiophen-2-yl)methylthiomethylsulfonate]
binding affinity: highest binding affinity
